{"source": "patent US8609678B2", "about": "“Reverse amide compounds as protein deacetylase inhibitors and methods of use thereof” (Acetylon Pharmaceuticals, priority 2010, dated 2013)", "key": {"HDAC6": {"target": "HDAC6 (Homo sapiens (Human), UniProt Q9UBN7)", "sequence (Q9UBN7 whole entry)": "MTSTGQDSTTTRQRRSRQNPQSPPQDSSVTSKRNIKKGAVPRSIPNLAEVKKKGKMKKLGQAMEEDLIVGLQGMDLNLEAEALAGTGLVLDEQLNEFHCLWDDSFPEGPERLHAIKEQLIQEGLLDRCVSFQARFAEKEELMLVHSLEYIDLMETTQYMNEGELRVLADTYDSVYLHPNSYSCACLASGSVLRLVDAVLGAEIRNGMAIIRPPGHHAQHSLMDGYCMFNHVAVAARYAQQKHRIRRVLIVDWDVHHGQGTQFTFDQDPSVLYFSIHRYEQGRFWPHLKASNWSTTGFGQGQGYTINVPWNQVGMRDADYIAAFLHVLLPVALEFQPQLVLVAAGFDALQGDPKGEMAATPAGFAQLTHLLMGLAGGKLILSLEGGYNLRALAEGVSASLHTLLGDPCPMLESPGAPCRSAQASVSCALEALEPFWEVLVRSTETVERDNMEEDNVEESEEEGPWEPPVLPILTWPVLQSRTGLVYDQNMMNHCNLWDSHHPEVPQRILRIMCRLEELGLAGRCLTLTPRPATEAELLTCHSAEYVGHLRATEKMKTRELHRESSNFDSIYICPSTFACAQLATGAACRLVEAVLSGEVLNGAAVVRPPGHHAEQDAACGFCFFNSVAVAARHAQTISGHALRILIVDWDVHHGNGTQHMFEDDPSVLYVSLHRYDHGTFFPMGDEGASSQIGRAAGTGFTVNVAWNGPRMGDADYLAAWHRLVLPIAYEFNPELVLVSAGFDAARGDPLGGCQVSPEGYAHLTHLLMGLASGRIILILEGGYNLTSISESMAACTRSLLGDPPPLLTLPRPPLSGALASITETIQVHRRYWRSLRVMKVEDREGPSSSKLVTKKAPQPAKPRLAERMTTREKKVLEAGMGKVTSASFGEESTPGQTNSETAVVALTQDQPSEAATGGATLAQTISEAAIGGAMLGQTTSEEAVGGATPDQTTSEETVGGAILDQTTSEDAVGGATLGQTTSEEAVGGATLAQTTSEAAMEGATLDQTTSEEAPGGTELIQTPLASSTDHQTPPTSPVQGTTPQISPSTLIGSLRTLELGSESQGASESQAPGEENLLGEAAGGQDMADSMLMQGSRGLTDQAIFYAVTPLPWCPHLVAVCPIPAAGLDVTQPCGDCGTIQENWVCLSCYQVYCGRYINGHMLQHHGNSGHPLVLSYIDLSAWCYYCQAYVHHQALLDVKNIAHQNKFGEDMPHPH", "experiment": "HDAC enzyme assay, HDAC6", "experimental": "(§1) Compounds for testing were diluted in DMSO to 50 fold the final concentration and a ten point three fold dilution series was made. The compounds were diluted in assay buffer (50 mM HEPES, pH 7.4, 100 mM KCl, 0.001% Tween-20, 0.05% BSA, 20 μM TCEP) to 6 fold their final concentration. […] The tripeptide substrate and trypsin at 0.05 μM final concentration were diluted in assay buffer at 6 fold their final concentration. The final enzyme concentrations used in these assays were 3.3 ng/ml (HDAC1), 0.2 ng/ml (HDAC2), 0.08 ng/ml (HDAC3) and 2 ng/ml (HDAC6). […] Five μl compounds and 20 μl of enzyme were added to wells of a black, opaque 384 well plate in duplicate. Enzyme and compound were incubated together at room temperature for 10 minutes. […] The development of fluorescence was monitored for 60 min and the linear rate of the reaction was calculated. The IC50 was determined using Graph Pad Prism by a four parameter curve fit."}, "HDAC3": {"target": "HDAC3 (Homo sapiens (Human), UniProt O15379)", "sequence (O15379 whole entry)": "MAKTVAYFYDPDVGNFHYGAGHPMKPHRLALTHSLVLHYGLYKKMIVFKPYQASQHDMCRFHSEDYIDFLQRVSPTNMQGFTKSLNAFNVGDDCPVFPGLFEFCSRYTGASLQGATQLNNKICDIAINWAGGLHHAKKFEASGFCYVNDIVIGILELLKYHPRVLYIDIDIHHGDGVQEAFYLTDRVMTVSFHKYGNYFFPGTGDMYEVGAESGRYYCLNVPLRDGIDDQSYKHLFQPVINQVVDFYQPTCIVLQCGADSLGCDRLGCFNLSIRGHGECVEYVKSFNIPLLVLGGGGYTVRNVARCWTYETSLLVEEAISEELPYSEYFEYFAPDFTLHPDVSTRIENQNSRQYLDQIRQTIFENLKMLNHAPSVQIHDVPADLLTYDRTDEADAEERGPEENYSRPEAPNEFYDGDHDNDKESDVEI", "sequence (Q9Y618 395-489 partner)": "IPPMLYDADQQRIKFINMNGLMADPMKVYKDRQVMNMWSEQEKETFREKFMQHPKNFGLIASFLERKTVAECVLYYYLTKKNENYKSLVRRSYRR", "experiment": "HDAC enzyme assay, HDAC3", "assay_type": "biochemical", "experimental": "as §1"}, "refractory relapsed MM": {"system": "refractory relapsed MM", "details": "202 patients with refractory relapsed MM; cited from earlier work"}}, "note": "Where two headings read alike, the source gives them in different places.", "data": [{"compound": "NC(=O)CCCCCCNC(=O)c1cnc(N(c2ccccc2)c2ccccc2)nc1", "note": "[N-(7-amino-7-oxoheptyl)-2-(diphenylamino)pyrimidine-5-carboxamide]", "values": [{"measurement": "IC50", "setting": "HDAC6; read-out: IC50 HDAC6, μM", "value": "> 50", "unit": "µM"}, {"measurement": "IC50", "setting": "HDAC3; μM, read-out: IC50 HDAC3", "value": "> 50", "unit": "µM"}]}, {"compound": "COC(c1ccccc1)(c1ccccc1)c1ccc(C(=O)NCCCCCCC(=O)NO)cc1", "note": "[N-(7-(hydroxyamino)-7-oxoheptyl)-4-(methoxydiphenylmethyl)benzamide]", "values": [{"measurement": "IC50", "setting": "HDAC6", "value": 0.007, "unit": "µM"}, {"measurement": "IC50", "setting": "HDAC3; 0.08 ng/ml enzyme, 17 μM tripeptide substrate, read-out: IC50(nM) HDAC3", "value": 0.243, "unit": "µM"}]}, {"compound": "CC(C)C[C@H](NC(=O)[C@H](Cc1ccccc1)NC(=O)c1cnccn1)B(O)O", "note": "[bortezomib]", "values": [{"measurement": "complete and near complete responses", "setting": "refractory relapsed MM", "value": 10, "unit": "%"}, {"measurement": "patients did not respond", "setting": "refractory relapsed MM", "value": 65, "unit": "%"}, {"measurement": "responses", "setting": "refractory relapsed MM", "value": 35, "unit": "%"}]}]}
